Measurements from patent publication US20180065917A1, “IMMUNE CHECKPOINT INHIBITORS, COMPOSITIONS AND METHODS THEREOF” (Polaris Pharmaceuticals, Inc., priority 2016, published 2018).
Counter-ions that a name gives are not always drawn.

SMILES	melting point
Cc1c(COc2ccc(CN[C@H](C)C(=O)O)cc2Br)cccc1-c1cccc(COc2ccc(CN[C@H](C)C(=O)O)cc2Br)c1C (as salt: trifluoroacetic acid salt) [Example 16, (2R,2′R)-2,2′-((((((2,2′-Dimethyl-[1,1′-biphenyl]-3,3′-diyl)bis(methylene))bis(oxy))bis(3-bromo-4,1-phenylene))bis(methylene))bis(azanediyl))dipropionic acid di-trifluoroacetic acid salt]	186 to 190 °C
Cc1c(COc2ccc(CN[C@H](CO)C(=O)O)cc2Br)cccc1-c1cccc(COc2ccc(CN[C@H](CO)C(=O)O)cc2Br)c1C (as salt: trifluoroacetic acid salt) [Example 17, (2R,2′R)-2,2′-((((((2,2′-Dimethyl-[1,1′-biphenyl]-3,3′-diyl)bis(methylene))bis(oxy))bis(3-bromo-4,1-phenylene))bis(methylene))bis(azanediyl))bis(3-hydroxypropanoic acid) di-trifluoroacetic acid salt]	156 to 160 °C
C#Cc1cc(CN2CCCC[C@H]2C(=O)O)ccc1OCc1cccc(-c2cccc(COc3ccc(CN4CCCC[C@H]4C(=O)O)cc3C#C)c2C)c1C (as salt: trifluoroacetic acid salt) [Example 26, (2S,2′S)-1,1′-(((((2,2′-Dimethyl-[1,1′-biphenyl]-3,3′-diyl)bis(methylene))bis(oxy))bis(3-ethynyl-4,1-phenylene))bis(methylene))bis(piperidine-2-carboxylic acid) di-trifluoroacetic acid salt]	175 °C (dec.)
CSc1cc(CN2CCCC[C@H]2C(=O)O)ccc1OCc1cccc(-c2cccc(COc3ccc(CN4CCCC[C@H]4C(=O)O)cc3SC)c2C)c1C (as salt: trifluoroacetic acid salt) [Example 28, (2S,2′S)-1,1′-(((((2,2′-Dimethyl-[1,1′-biphenyl]-3,3′-diyl)bis(methylene))bis(oxy))bis(3-(methylthio)-4,1-phenylene))bis(methylene))bis(piperidine-2-carboxylic acid) di-trifluoroacetic acid salt]	134 to 138 °C
Cc1c(COc2ccc(CN(CC(=O)O)CC(=O)O)cc2Br)cccc1-c1cccc(COc2ccc(CN(CC(=O)O)CC(=O)O)cc2Br)c1C (as salt: trifluoroacetic acid salt) [Example 30, 2,2′,2″,2′″-((((((2,2′-Dimethyl-[1,1′-biphenyl]-3,3′-diyl)bis(methylene))bis(oxy))bis(3-bromo-4,1-phenylene))bis(methylene))bis(azanetriyl))tetraacetic acid di-trifluoroacetic acid salt]	223 to 227 °C
Cc1c(COc2ccc(CNC(CO)CO)cc2Br)cccc1-c1cccc(COc2ccc(CNC(CO)CO)cc2Br)c1C (as salt: trifluoroacetic acid salt) [Example 32, 2,2′-((((((2,2′-Dimethyl-[1,1′-biphenyl]-3,3′-diyl)bis(methylene))bis(oxy))bis(3-bromo-4,1-phenylene))bis(methylene))bis(azanediyl))bis(propane-1,3-diol) di-trifluoroacetic acid salt]	148 to 152 °C

The remaining lines, values ahead:

melting point	SMILES
136 to 140 °C	Cc1c(COc2ccc(CNCCO)cc2Br)cccc1-c1cccc(COc2ccc(CNCCO)cc2Br)c1C (as salt: trifluoroacetic acid salt) [Example 5, 2,2′-((((((2,2′-Dimethyl-[1,1′-biphenyl]-3,3′-diyl)bis(methylene))bis(oxy))bis(3-bromo-4,1-phenylene))bis(methylene))bis(azanediyl))bis(ethan-1-ol) di-trifluoroacetic acid salt]
230 to 234 °C	Cc1c(COc2ccc(CNC(C)(C)C(=O)O)cc2Br)cccc1-c1cccc(COc2ccc(CNC(C)(C)C(=O)O)cc2Br)c1C (as salt: trifluoroacetic acid salt) [Example 14, 2,2′-((((((2,2′-Dimethyl-[1,1′-biphenyl]-3,3′-diyl)bis(methylene))bis(oxy))bis(3-bromo-4,1-phenylene))bis(methylene))bis(azanediyl))bis(2-methylpropanoic acid) di-trifluoroacetic acid salt]
243 to 247 °C	Cc1c(COc2ccc(CN[C@@H](C)C(=O)O)cc2Br)cccc1-c1cccc(COc2ccc(CN[C@@H](C)C(=O)O)cc2Br)c1C (as salt: trifluoroacetic acid salt) [Example 15, (2S,2′S)-2,2′-((((((2,2′-Dimethyl-[1,1′-biphenyl]-3,3′-diyl)bis(methylene))bis(oxy))bis(3-bromo-4,1-phenylene))bis(methylene))bis(azanediyl))dipropionic acid di-trifluoroacetic acid salt]
227 to 231 °C	Cc1c(COc2ccc(CN[C@@H](C(=O)O)[C@H](C)O)cc2Br)cccc1-c1cccc(COc2ccc(CN[C@@H](C(=O)O)[C@H](C)O)cc2Br)c1C (as salt: trifluoroacetic acid salt) [Example 18, (2R,2′R,3S,3′S)-2,2′-((((((2,2′-Dimethyl-[1,1′-biphenyl]-3,3′-diyl)bis(methylene))bis(oxy))bis(3-bromo-4,1-phenylene))bis(methylene))bis(azanediyl))bis(3-hydroxybutanoic acid) di-trifluoroacetic acid salt]
131 to 135 °C	CCc1cc(CN2CCCC[C@H]2C(=O)O)ccc1OCc1cccc(-c2cccc(COc3ccc(CN4CCCC[C@H]4C(=O)O)cc3CC)c2C)c1C (as salt: trifluoroacetic acid salt) [Example 27, (2S,2′S)-1,1′-(((((2,2′-Dimethyl-[1,1′-biphenyl]-3,3′-diyl)bis(methylene))bis(oxy))bis(3-ethyl-4,1-phenylene))bis(methylene))bis(piperidine-2-carboxylic acid) di-trifluoroacetic acid salt]
142 to 146 °C	Cc1c(COc2ccc(CN3CCCC[C@H]3C(=O)O)cc2C(F)F)cccc1-c1cccc(COc2ccc(CN3CCCC[C@H]3C(=O)O)cc2C(F)F)c1C (as salt: trifluoroacetic acid salt) [Example 29, (2S,2′S)-1,1′-(((((2,2′-Dimethyl-[1,1′-biphenyl]-3,3′-diyl)bis(methylene))bis(oxy))bis(3-(difluoromethyl)-4,1-phenylene))bis(methylene))bis(piperidine-2-carboxylic acid) di-trifluoroacetic acid salt]
118 to 122 °C	Cc1c(COc2ccc(CN(CCO)CCO)cc2Br)cccc1-c1cccc(COc2ccc(CN(CCO)CCO)cc2Br)c1C (as salt: trifluoroacetic acid salt) [Example 31, 2,2′,2″,2′″-((((((2,2′-Dimethyl-[1,1′-biphenyl]-3,3′-diyl)bis(methylene))bis(oxy))bis(3-bromo-4,1-phenylene))bis(methylene))bis(azanetriyl))tetrakis(ethan-1-ol) di-trifluoroacetic acid salt]
134 to 138 °C	Cc1c(COc2ccc(CNC(C)(CO)CO)cc2Br)cccc1-c1cccc(COc2ccc(CNC(C)(CO)CO)cc2Br)c1C (as salt: trifluoroacetic acid salt) [Example 33, 2,2′-((((((2,2′-Dimethyl-[1,1′-biphenyl]-3,3′-diyl)bis(methylene))bis(oxy))bis(3-bromo-4,1-phenylene))bis(methylene))bis(azanediyl))bis(2-methylpropane-1,3-diol) di-trifluoroacetic acid salt]
